Our source for the IC50 values is patent US20240190862A1 (AMGEN INC., priority 2019, published 2024).

The target of assay [1] is GDP-bound KRAS protein (aa 1-169) G12C/C118A (Homo sapiens (Human), UniProt P01116, C118A/G12C). Put plainly: Coupled Nucleotide Exchange Assay (KRAS G12C). In kind it is biochemical. On the procedure: (§1) Coupled Nucleotide Exchange Assay: Purified GDP-bound KRAS protein (aa 1-169), containing either G12C or G12D, as well as C118A amino acid substitutions and an N-terminal His-tag, was pre-incubated in assay buffer (25 mM HEPES pH 7.4, 10 mM MgCl2, and 0.01% Triton X-100) with a compound dose-response titration for either 5 min or 20 hours (see Table 15). Following compound pre-incubation, purified SOS protein (aa 564-1049) and GTP (Roche 10106399001) were added to the assay wells and incubated for an additional 30 min. To determine the extent of inhibition of SOS-mediated nucleotide exchange, purified GST-tagged cRAF (aa 1-149), nickel chelate AlphaLISA acceptor beads (PerkinElmer AL108R), and AlphaScreen glutathione donor beads (PerkinElmer 6765302) were added to the assay wells and incubated for 10 minutes. The assay plates were then read on a PerkinElmer EnVision Multilabel Reader, using AlphaScreen® technology, and data were analyzed using a 4-parameter logistic model to calculate IC50 values.
Sequence of GDP-bound KRAS protein (aa 1-169) G12C/C118A (P01116 other isoform, or with tags, fused parts or gaps G12C/C118A): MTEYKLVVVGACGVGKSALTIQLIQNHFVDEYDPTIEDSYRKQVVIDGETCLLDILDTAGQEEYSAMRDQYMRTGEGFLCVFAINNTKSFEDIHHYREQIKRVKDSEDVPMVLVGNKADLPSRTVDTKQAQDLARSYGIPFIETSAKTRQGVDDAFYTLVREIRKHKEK

In assay [2] the target is GDP-bound KRAS protein (aa 1-169) G12D/C118A (Homo sapiens (Human), UniProt P01116, C118A/G12D). Put plainly: Coupled Nucleotide Exchange Assay (KRAS G12D). The class given is biochemical. On the procedure: as §1
Sequence of GDP-bound KRAS protein (aa 1-169) G12D/C118A (P01116 other isoform, or with tags, fused parts or gaps G12D/C118A): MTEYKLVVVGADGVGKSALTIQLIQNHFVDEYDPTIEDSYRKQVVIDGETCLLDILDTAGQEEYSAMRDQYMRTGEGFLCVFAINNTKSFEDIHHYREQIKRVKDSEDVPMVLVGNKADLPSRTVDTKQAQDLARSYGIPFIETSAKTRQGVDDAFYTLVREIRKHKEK
Where [3] appears, read: 5 min compound pre-incubation, read-out: GDP KRAS G12C 5 min Coupled Exchange IC50 IP.
Where [4] appears, read: 20 h compound pre-incubation, read-out: GDP KRAS G12C 20 h Coupled Exchange IC50 IP.
Where [5] appears, read: 20 h compound pre-incubation, read-out: GDP KRAS G12D 20 h Coupled Exchange IC50 IP.

Molecules are shown by their SMILES. Where two headings read alike, the source gives them in different places.

By IC50 is commonly meant the concentration at which inhibition is half-maximal. `Cc1ccnc(C(C)C)c1-n1c(=O)nc(N2CCC3C2CN3C(=O)C2CO2)c2cc(Cl)c(-c3ccccc3F)nc21` (stereo not shown) [Example 28, 6-Chloro-7-(2-fluorophenyl)-1-(2-isopropyl-4-methylpyridin-3-yl)-4-(6-(oxirane-2-carbonyl)-2,6-diazabicyclo[3.2.0]heptan-2-yl)pyrido[2,3-d]pyrimidin-2(1H)-one]: the values for the IC50 in assay [1] (setting [3]), in assay [1] (setting [4]) and in assay [2] (setting [5]) were 193 µM, 0.647 µM and > 250 µM, respectively.
As to `Cc1ccnc(C(C)C)c1-n1c(=O)nc(N2CCN(C(=O)[C@H]3CN3)C[C@@H]2C)c2cc(Cl)c(-c3ccccc3F)nc21` [Example 14, 4-((S)-4-((R)-Aziridine-2-carbonyl)-2-methylpiperazin-1-yl)-6-chloro-7-(2-fluorophenyl)-1-(2-isopropyl-4-methylpyridin-3-yl)pyrido[2,3-d]pyrimidin-2(1H)-one], the IC50 in assay [1] (setting [3]) was 88.3 µM; in assay [1] (setting [4]), 1.56 µM; in assay [2] (setting [5]), > 250 µM.
Consider `Cc1ccnc(C(C)C)c1-n1c(=O)nc(N2CCN(C(=O)[C@@H]3O[C@H]3CO)C[C@@H]2C)c2cc(Cl)c(-c3ccccc3F)nc21` [Example 22, 6-Chloro-7-(2-fluorophenyl)-4-((S)-4-((2R,3S)-3-(hydroxymethyl)oxirane-2-carbonyl)-2-methylpiperazin-1-yl)-1-(2-isopropyl-4-methylpyridin-3-yl)pyrido[2,3-d]pyrimidin-2(1H)-one], for which the IC50 in assay [1] (setting [3]) was 6.26 µM; in assay [1] (setting [4]) it was 0.064 µM; in assay [2] (setting [5]) it was > 250 µM.
For the compound `Cc1ccnc(C(C)C)c1-n1c(=O)nc(N2CCN(C(=O)[C@H]3O[C@@H]3C)C[C@@H]2C)c2cc(Cl)c(-c3ccccc3F)nc21` (mixture of isomers) [Example 17, 6-Chloro-7-(2-fluorophenyl)-1-(2-isopropyl-4-methylpyridin-3-yl)-4-((S)-2-methyl-4-((2R,3S)-3-methyloxirane-2-carbonyl)piperazin-1-yl)pyrido[2,3-d]pyrimidin-2(1H)-one and 6-chloro-7-(2-fluorophenyl)-1-(2-isopropyl-4-methylpyridin-3-yl)-4-((S)-2-methyl-4-((2S,3R)-3-methyloxirane-2-carbonyl)piperazin-1-yl)pyrido[2,3-d]pyrimidin-2(1H)-one], the IC50 in assay [1] (setting [3]) is 17.8 µM; in assay [1] (setting [4]) it was 0.096 µM; in assay [2] (setting [5]), > 250 µM.
In the case of `Cc1ccnc(C(C)C)c1-n1c(=O)nc(N2CCN(C(=O)C3CO3)[C@@H](CC#N)C2)c2cc(Cl)c(-c3ccccc3F)nc21` (stereo partly drawn) [Example 23, 2-((2S)-4-(6-Chloro-7-(2-fluorophenyl)-1-(2-isopropyl-4-methylpyridin-3-yl)-2-oxo-1,2-dihydropyrido[2,3-d]pyrimidin-4-yl)-1-(oxirane-2-carbonyl)piperazin-2-yl)acetonitrile], the IC50 was > 250 µM in assay [1] (setting [3]), 0.431 µM in assay [1] (setting [4]) and > 250 µM in assay [2] (setting [5]).
On to `Cc1ccnc(C(C)C)c1-n1c(=O)nc(N2CC(NC(=O)C3CO3)C2)c2cc(Cl)c(-c3ccccc3F)nc21` (stereo not shown) [Example 27], for which the IC50 in assay [1] (setting [3]) was 4.41 µM; in assay [1] (setting [4]), 0.018 µM; in assay [2] (setting [5]) it was > 250 µM.
Turning to `Cc1ccnc(C(C)C)c1-n1c(=O)nc(N2CCN(C(=O)CF)C[C@@H]2C)c2cc(Cl)c(-c3ccccc3F)nc21` [Example 2, (S)-6-Chloro-4-(4-(2-fluoroacetyl)-2-methylpiperazin-1-yl)-7-(2-fluorophenyl)-1-(2-isopropyl-4-methylpyridin-3-yl)pyrido[2,3-d]pyrimidin-2(1H)-one], the IC50 is > 250 µM in assay [1] (GDP KRAS G12C 5 min Coupled Exchange IC50 IP, 5 min compound pre-incubation); 13.4 µM in assay [1] (GDP KRAS G12C 20 h Coupled Exchange IC50 IP, 20 h compound pre-incubation); > 250 µM in assay [2].
With `Cc1ccnc(C(C)C)c1-n1c(=O)nc(N2CCN(C(=O)[C@@H]3O[C@H]3C(=O)O)C[C@@H]2C)c2cc(Cl)c(-c3ccccc3F)nc21` [Example 20, (2R,3R)-3-((S)-4-(6-chloro-7-(2-fluorophenyl)-1-(2-isopropyl-4-methylpyridin-3-yl)-2-oxo-1,2-dihydropyrido[2,3-d]pyrimidin-4-yl)-3-methylpiperazine-1-carbonyl)oxirane-2-carboxylic acid], the values for the IC50 in assay [1] (setting [4]) and in assay [2] (setting [5]) were 1 µM and > 250 µM, respectively.
Regarding `Cc1ccnc(C(C)C)c1-n1c(=O)nc(N2CCN(C(=O)CCl)C[C@@H]2C)c2cc(Cl)c(-c3ccccc3F)nc21` [Example 1, (S)-6-Chloro-4-(4-(2-chloroacetyl)-2-methylpiperazin-1-yl)-7-(2-fluorophenyl)-1-(2-isopropyl-4-methylpyridin-3-yl)pyrido[2,3-d]pyrimidin-2(1H)-one], the figures for the IC50 in assay [1] (setting [3]), in assay [1] (setting [4]) and in assay [2] (setting [5]) were 1.29 µM, 0.026 µM and > 250 µM, respectively.
On to `Cc1ccnc(C(C)C)c1-n1c(=O)nc(N2CC3(CN(C(=O)C4CO4)C3)C2)c2cc(Cl)c(-c3ccccc3F)nc21` (stereo not shown) [Example 24, 6-Chloro-7-(2-fluorophenyl)-1-(2-isopropyl-4-methylpyridin-3-yl)-4-(6-(oxirane-2-carbonyl)-2,6-diazaspiro[3.3]heptan-2-yl)pyrido[2,3-d]pyrimidin-2(1H)-one], for which the IC50 in assay [1] (setting [3]) is 222 µM; in assay [1] (setting [4]), 41.6 µM; in assay [2] (setting [5]), > 250 µM.
`Cc1ccnc(C(C)C)c1-n1c(=O)nc(N2CCN(C(=O)COc3cccc(F)c3F)C[C@@H]2C)c2cc(Cl)c(-c3ccccc3F)nc21` [Example 12, (S)-6-Chloro-7-(2-fluorophenyl)-1-(2-isopropyl-4-methylpyridin-3-yl)-4-(2-methyl-4-(2-(2,3-difluorophenoxy)acetyl)piperazin-1-yl)pyrido[2,3-d]pyrimidin-2(1H)-one]: the IC50 in assay [1] (setting [3]) was 35.7 µM; in assay [1] (setting [4]) it was 2.02 µM; in assay [2] (setting [5]), > 250 µM.
As for `Cc1ccnc(C(C)C)c1-n1c(=O)nc(N2CCC3(CC2)CN(C(=O)[C@H]2CO2)C3)c2cc(Cl)c(-c3ccccc3F)nc21` [Example 25, (R)-6-chloro-7-(2-fluorophenyl)-1-(2-isopropyl-4-methylpyridin-3-yl)-4-(2-(oxirane-2-carbonyl)-2,7-diazaspiro[3.5]nonan-7-yl)pyrido[2,3-d]pyrimidin-2(1H)-one], the figures for the IC50 in assay [1] (setting [4]) and in assay [2] (setting [5]) were 7.15 µM and > 250 µM, respectively.
Consider `Cc1ccnc(C(C)C)c1-n1c(=O)nc(N2CC[C@@H](NC(=O)C3CO3)C2)c2cc(Cl)c(-c3ccccc3F)nc21` (stereo partly drawn) [Example 26, N—((R)-1-(6-Chloro-7-(2-fluorophenyl)-1-(2-isopropyl-4-methylpyridin-3-yl)-2-oxo-1,2-dihydropyrido[2,3-d]pyrimidin-4-yl)pyrrolidin-3-yl)oxirane-2-carboxamide], for which the IC50 in assay [1] (setting [3]) was 194 µM; in assay [1] (setting [4]) it was 2.99 µM; in assay [2] (setting [5]) it was > 250 µM.
In the case of `Cc1ccnc(C(C)C)c1-n1c(=O)nc(N2CCN(C(=O)[C@@H]3O[C@H]3CN3CCCCC3)C[C@@H]2C)c2cc(Cl)c(-c3ccccc3F)nc21` [Example 21, 6-Chloro-7-(2-fluorophenyl)-1-(2-isopropyl-4-methylpyridin-3-yl)-4-((S)-2-methyl-4-((2R,3S)-3-(piperidin-1-ylmethyl)oxirane-2-carbonyl)piperazin-1-yl)pyrido[2,3-d]pyrimidin-2(1H)-one], the IC50 is 1.12 µM in assay [1] (setting [3]), 0.005 µM in assay [1] (setting [4]) and > 250 µM in assay [2] (setting [5]).
Turning to `CCOC(=O)[C@H]1O[C@@H]1C(=O)N1CCN(c2nc(=O)n(-c3c(C)ccnc3C(C)C)c3nc(-c4ccccc4F)c(Cl)cc23)[C@@H](C)C1` [Example 18, Ethyl (2S,3S)-3-((S)-4-(6-chloro-7-(2-fluorophenyl)-1-(2-isopropyl-4-methylpyridin-3-yl)-2-oxo-1,2-dihydropyrido[2,3-d]pyrimidin-4-yl)-3-methylpiperazine-1-carbonyl)oxirane-2-carboxylate], the IC50 in assay [1] (setting [3]) was 23.9 µM; in assay [1] (setting [4]) it was 0.53 µM; in assay [2] (setting [5]) it was > 250 µM.
Turning to `Cc1ccnc(C(C)C)c1-n1c(=O)nc(N(C)C2CN(C(=O)C3CO3)C2)c2cc(Cl)c(-c3ccccc3F)nc21` (stereo not shown) [Example 29], the figures for the IC50 in assay [1] (setting [3]), in assay [1] (setting [4]) and in assay [2] (setting [5]) were 13.8 µM, 0.227 µM and > 250 µM, respectively.
With `Cc1ccnc(C(C)C)c1-n1c(=O)nc(N2CCN(C(=O)COc3c(F)c(F)cc(F)c3F)C[C@@H]2C)c2cc(Cl)c(-c3ccccc3F)nc21` [Example 9, (S)-6-chloro-7-(2-fluorophenyl)-1-(2-isopropyl-4-methylpyridin-3-yl)-4-(2-methyl-4-(2-(2,3,5,6-tetrafluorophenoxy)acetyl)piperazin-1-yl)pyrido[2,3-d]pyrimidin-2(1H)-one], the IC50 was 33.9 µM in assay [1] (setting [3]), 2.45 µM in assay [1] (setting [4]) and > 250 µM in assay [2] (setting [5]).
As for `Cc1ccnc(C(C)C)c1-n1c(=O)nc(N2CCN(C(=O)COc3c(Cl)cccc3Cl)C[C@@H]2C)c2cc(Cl)c(-c3ccccc3F)nc21` [Example 7, (S)-6-Chloro-4-(4-(2-(2,6-dichlorophenoxy)acetyl)-2-methylpiperazin-1-yl)-7-(2-fluorophenyl)-1-(2-isopropyl-4-methylpyridin-3-yl)pyrido[2,3-d]pyrimidin-2(1H)-one], the IC50 in assay [1] (setting [3]) was > 250 µM; in assay [1] (setting [4]), 26.2 µM; in assay [2] (setting [5]) it was > 250 µM.
